From ChEMBL document CHEMBL3097995, “NAD-based inhibitors with anticancer potential” (Bioorg Med Chem Lett, 2014)

Legend:
[1] = tested on: HeLa; test: Antiproliferative activity against human HeLa cells; format: functional, cell-based
[2] = tested on: HT-29; test: Antiproliferative activity against human HT-29 cells; format: functional, cell-based
[3] = molecular target: Inosine-5'-monophosphate dehydrogenase 1 (Homo sapiens, UniProt P20839); test: Inhibition of IMPDH1 (unknown origin)
[4] = tested on: K562; test: Antiproliferative activity against human K562 cells; format: functional, cell-based
[5] = molecular target: Inosine-5'-monophosphate dehydrogenase 2 (Homo sapiens, UniProt P12268); test: Inhibition of IMPDH2 (unknown origin)
[6] = tested on: PC-3; test: Antiproliferative activity against human PC3 cells; format: functional, cell-based
[7] = tested on: DU-145; test: Antiproliferative activity against human DU145 cells; format: functional, cell-based
[8] = tested on: HL-60; test: Antiproliferative activity against human HL60 cells; format: functional, cell-based
[9] = organism: Homo sapiens; test: Selectivity ratio of Ki for IMPDH1 (unknown origin) to Ki for IMPDH2 (unknown origin)

Inosine-5'-monophosphate dehydrogenase 1, sequence (P20839 whole entry): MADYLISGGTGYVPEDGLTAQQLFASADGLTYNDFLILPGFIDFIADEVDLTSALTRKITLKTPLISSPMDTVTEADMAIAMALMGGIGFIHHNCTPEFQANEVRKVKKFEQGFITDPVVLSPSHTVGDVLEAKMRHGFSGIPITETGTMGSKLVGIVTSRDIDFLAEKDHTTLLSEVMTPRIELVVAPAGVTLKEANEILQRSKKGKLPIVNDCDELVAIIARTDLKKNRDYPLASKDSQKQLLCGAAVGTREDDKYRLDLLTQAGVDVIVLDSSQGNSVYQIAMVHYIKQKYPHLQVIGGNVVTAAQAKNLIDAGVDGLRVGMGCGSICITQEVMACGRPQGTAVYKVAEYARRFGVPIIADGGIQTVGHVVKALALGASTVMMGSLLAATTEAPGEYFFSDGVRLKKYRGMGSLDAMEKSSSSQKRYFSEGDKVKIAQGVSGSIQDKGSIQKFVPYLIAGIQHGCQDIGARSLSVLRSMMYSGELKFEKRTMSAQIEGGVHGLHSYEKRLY

SMILES | IC50 [1] | IC50 [2] | Ki [3] | IC50 [4] | Ki [5] | IC50 [6] | IC50 [7] | IC50 [8] | Ratio Ki [9]
COc1c(C)c2c(c(O)c1CCOP(=O)(O)CP(=O)(O)OC[C@H]1O[C@@H](n3cnc4c(N)nc(COCc5ccccc5)nc43)[C@H](O)[C@@H]1O)C(=O)OC2 | 11 µM | > 100 µM | 70 nM | 3 µM | 44 nM | – | – | – | –
COc1c(C)c2c(c(O)c1C/C=C(\C)CCC(=O)NCC(=O)NC[C@H]1O[C@@H](n3cnc4c(N)ncnc43)[C@H](O)[C@@H]1O)C(=O)OC2 | – | – | 259 nM | > 100 µM | 188 nM | > 100 µM | > 100 µM | > 100 µM | –
COC(=O)[C@H](NC(=O)CC/C(C)=C/Cc1c(O)c2c(c(C)c1OC)COC2=O)C(C)C | – | – | 7720 nM | 29 µM | 1960 nM | 61 µM | 16 µM | 36 µM | –
COc1c(C)c2c(c(O)c1CCOP(=O)(O)CP(=O)(O)OC[C@H]1O[C@@H](n3cnc4c(N)nc(C(F)(F)F)nc43)[C@H](O)[C@@H]1O)C(=O)OC2 | 4.5 µM | 8.7 µM | 13 nM | 1 µM | 15 nM | – | – | – | –
COc1c(C)c2c(c(O)c1C/C=C(\C)CCC(=O)N[C@H](C(=O)NC[C@H]1O[C@@H](n3cnc4c(N)ncnc43)[C@H](O)[C@@H]1O)C(C)C)C(=O)OC2 | – | – | 19 nM | > 100 µM | 70 nM | > 100 µM | > 100 µM | > 100 µM | –
COc1c(C)c2c(c(O)c1CCOP(=O)(O)CP(=O)(O)OC[C@H]1O[C@@H](n3c(Br)nc4c(N)ncnc43)[C@H](O)[C@@H]1O)C(=O)OC2 | > 100 µM | > 100 µM | 39 nM | 48 µM | 186 nM | – | – | – | –
COc1c(C)c2c(c(O)c1C/C=C(\C)CCC(=O)N[C@@H](Cc1c[nH]c3ccccc13)C(=O)NC[C@H]1O[C@@H](n3cnc4c(N)ncnc43)[C@H](O)[C@@H]1O)C(=O)OC2 | – | – | 164 nM | > 100 µM | 188 nM | > 100 µM | > 100 µM | > 100 µM | –
COC(=O)[C@@H](NC(=O)CC/C(C)=C/Cc1c(O)c2c(c(C)c1OC)COC2=O)C(C)C | – | – | 3770 nM | 8.3 µM | 967 nM | > 100 µM | 39 µM | 31 µM | –
COc1c(C)c2c(c(O)c1CCOP(=O)(O)CP(=O)(O)OC[C@H]1O[C@@H](n3cnc4c(N)cccc43)[C@H](O)[C@@H]1O)C(=O)OC2 | 25 µM | > 100 µM | 491 nM | 2.5 µM | 165 nM | – | – | – | 3
COC(=O)CNC(=O)CC/C(C)=C/Cc1c(O)c2c(c(C)c1OC)COC2=O | – | – | 522 nM | 16 µM | 487 nM | 79 µM | 3.1 µM | 22 µM | –
COc1c(C)c2c(c(O)c1C/C=C(\C)CCC(=O)NCC(=O)O)C(=O)OC2 | – | – | 892 nM | 10 µM | 321 nM | > 100 µM | > 100 µM | > 100 µM | –
COc1c(C)c2c(c(O)c1CCOP(=O)(O)CP(=O)(O)OC[C@H]1O[C@@H](n3cnc4c(N)nc(-c5cccs5)nc43)[C@H](O)[C@@H]1O)C(=O)OC2 | 12 µM | 46 µM | 82 nM | 1.5 µM | 56 nM | – | – | – | –
COc1c(C)c2c(c(O)c1C/C=C(\C)CCC(=O)N[C@H](Cc1ccccc1)C(=O)NC[C@H]1O[C@@H](n3cnc4c(N)ncnc43)[C@H](O)[C@@H]1O)C(=O)OC2 | – | – | 38 nM | > 100 µM | 12.6 nM | > 100 µM | > 100 µM | > 100 µM | –
COC(=O)[C@@H](Cc1ccccc1)NC(=O)CC/C(C)=C/Cc1c(O)c2c(c(C)c1OC)COC2=O | – | – | 5560 nM | 29 µM | 2400 nM | 70 µM | 10 µM | 41 µM | –
COc1c(C)c2c(c(O)c1C/C=C(\C)CCC(=O)N[C@H](C(=O)O)C(C)C)C(=O)OC2 | – | – | 132 nM | 55 µM | 175 nM | > 100 µM | > 100 µM | 72 µM | –
COc1c(C)c2c(c(O)c1C/C=C(\C)CCC(=O)N[C@@H](C(=O)O)C(C)C)C(=O)OC2 | – | – | 2030 nM | > 100 µM | 1230 nM | > 100 µM | > 100 µM | > 100 µM | –
COc1c(C)c2c(c(O)c1C/C=C(\C)CCC(=O)N[C@@H](Cc1c[nH]c3ccccc13)C(=O)O)C(=O)OC2 | – | – | 56 nM | > 100 µM | 235 nM | > 100 µM | > 100 µM | > 100 µM | –
COc1c(C)c2c(c(O)c1C/C=C(\C)CCC(=O)N[C@@H](CCSC)C(=O)O)C(=O)OC2 | – | – | 5130 nM | > 100 µM | 134 nM | > 100 µM | > 100 µM | > 100 µM | –
COc1c(C)c2c(c(O)c1C/C=C(\C)CCC(=O)N[C@H](Cc1c[nH]c3ccccc13)C(=O)O)C(=O)OC2 | – | – | 32 nM | > 100 µM | 174 nM | > 100 µM | > 100 µM | > 100 µM | –
